Measured values reported in patent US20020137929A1, “1 - (3-heterocyclylphenyl) isothiourea, -isourea, -guanidine and -amidine herbicidal agents” (Intellectual Property Department, BASF Aktiengesellschaft, priority 1998, published 2002).

Legend:
[1] = test system: GALAP (Galium); experiment: Preemergence herbicidal evaluation; assay type: in vivo, Galium aparine; details: rated 4-5 weeks after treatment
Method in brief: (§1)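 Test compound, dissolved in aqueous acetone, was sprayed over planted soil cups at an equivalent of about 0.0156 to 0.500 kg/ha; seeds had been mixed with potting soil. Greenhouse growth followed, with visual 0-9 scoring of injury at four to five weeks.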

[2] = test system: CHEAL (Lambsquarters, Common); experiment: Postemergence herbicidal evaluation; assay type: in vivo, Chenopodium album; details: postemergence
Method in brief: (§2)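 Rate range approx. 0.0156–0.500 kg/ha. Foliar application at 40 psi to ~2-week seedlings; surfactant 0.5% TWEEN 20 in 50/50 acetone/water. Evaluation 4–5 wk post-treatment by 0–9 visual injury score, means of replicate tests.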

[3] = test system: ZEAMX (Corn, Field); experiment: Preemergence herbicidal evaluation; assay type: in vivo, Zea mays; details: rated 4-5 weeks after treatment
Method in brief: as §1

[4] = test system: CYPSE (Flatsedge); experiment: Preemergence weed control under flooded paddy conditions; assay type: in vivo, Cyperus serotinus; details: rated 3-4 weeks after treatment
Method in brief: (§3)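 Seeds or propagules sown in top 0.5 cm of silt loam soil, flooded 1.5 to 3 cm above surface throughout. Compound in 50/50 v/v aqueous/acetone pipetted into flood water at about 0.0313 to 0.500 kg/ha. Visual 0-9 rating versus control after three to four weeks in greenhouse.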

[5] = test system: GALAP (Galium); experiment: Postemergence herbicidal evaluation; assay type: in vivo, Galium aparine; details: postemergence
Method in brief: as §2

[6] = test system: CASOB (Sicklepod); experiment: Postemergence herbicidal evaluation; assay type: in vivo, Cassia obtusifolia; details: postemergence
Method in brief: as §2

[7] = test system: CASOB (Sicklepod); experiment: Preemergence herbicidal evaluation; assay type: in vivo, Cassia obtusifolia; details: rated 4-5 weeks after treatment
Method in brief: as §1

[8] = test system: ORYSAT (Rice, Tebonnet); experiment: Postemergence herbicidal evaluation; assay type: in vivo, Oryza sativa, (L.) Tebonnet; details: postemergence
Method in brief: as §2

[9] = test system: ECHCG (Barnyardgrass); experiment: Postemergence herbicidal evaluation; assay type: in vivo, Echinochloa crus-galli; details: postemergence
Method in brief: as §2

[10] = test system: CYPIR (Rice Flatsedge); experiment: Preemergence weed control under flooded paddy conditions; assay type: in vivo, Cyperus iria; details: rated 3-4 weeks after treatment
Method in brief: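 Ratings on a 0-9 visual scale cover stand, vigor, malformation, size, chlorosis and overall appearance relative to a control, taken three to four weeks post-treatment. Application was into flood water over freshly sown silt loam at roughly 0.0313 to 0.500 kg/ha.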

[11] = test system: SAGPY (Arrowhead (Pygmaea)); experiment: as above; assay type: in vivo, Sagittaria pygmaea; details: rated 3-4 weeks after treatment
Method in brief: as §3

[12] = test system: GLXMAW (Soybean, Williams); experiment: Postemergence herbicidal evaluation; assay type: in vivo, Glycine max, (L.) Merr. cv Williams; details: postemergence
Method in brief: as §2

[13] = test system: CYPSE (Flatsedge); experiment: Postemergence weed control under flooded paddy conditions; assay type: in vivo, Cyperus serotinus; details: postemergence weeds, 3-4 weeks after treatment
Method in brief: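 Injury ratings (0–9 scale covering stand, vigor, malformation, size, chlorosis and overall appearance versus control) were made three to four weeks after treatment. Test material, about 0.0313 to 0.500 kg/ha a.i. in 50/50 v/v aqueous/acetone, was added to flood water 1.5 to 3 cm deep over 3 to 5 cm weeds and 1.5 to 2.5 leaf rice.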

[14] = test system: SETVI (Foxtail, Green); experiment: Postemergence herbicidal evaluation; assay type: in vivo, Setaria viridis; details: postemergence
Method in brief: as §2

[15] = test system: AMBEL (Ragweed, Common); experiment: Postemergence herbicidal evaluation; assay type: in vivo, Ambrosia artemisifolia; details: postemergence
Method in brief: as §2

Question: How did the “Preemergence herbicidal rating GALAP” value ([1]; rate 0.0156 kg/ha) turn out when `C=CCN1C(=O)CSC1=Nc1cc(-n2c(=O)cc(C(F)(F)F)n(C)c2=O)c(F)cc1Cl` [Compound 27] was run?
Answer: Its value is 0.0.

Question: What about the “Preemergence herbicidal rating GALAP” value ([1]; rate 0.0313 kg/ha) of the same compound?
Answer: Its value is 9.0.

Question: What about the “Preemergence herbicidal rating GALAP” value ([1]; rate 0.0625 kg/ha) of the same compound?
Answer: Its value is 9.0.

Question: And the “Preemergence herbicidal rating GALAP” value ([1]; rate 0.1250 kg/ha)?
Answer: Its value is 9.0.

Question: What about the “Preemergence herbicidal rating GALAP” value ([1]; rate 0.2500 kg/ha) of the same compound?
Answer: The value was 9.0.

Question: And the CHEAL herbicidal rating ([2]; rate 0.0158 kg/ha)?
Answer: The CHEAL herbicidal rating was 6.0.

Question: What about the CHEAL herbicidal rating ([2]; rate 0.0315 kg/ha) of the same compound?
Answer: Its CHEAL herbicidal rating is 6.0.

Question: What about the CHEAL herbicidal rating ([2]; rate 0.0630 kg/ha) of the same compound?
Answer: The CHEAL herbicidal rating was 9.0.

Question: What about the “Preemergence herbicidal rating ZEAMX” value ([3]; rate 0.0156 kg/ha) of the same compound?
Answer: The value was 0.0.

Question: And the “Preemergence herbicidal rating ZEAMX” value ([3]; rate 0.0313 kg/ha)?
Answer: The value was 7.0.

Question: And the “Preemergence herbicidal rating ZEAMX” value ([3]; rate 0.0625 kg/ha)?
Answer: The value was 8.0.

Question: What about the “Preemergence herbicidal rating ZEAMX” value ([3]; rate 0.1250 kg/ha) of the same compound?
Answer: The value was 9.0.

Question: And the “Preemergence herbicidal rating ZEAMX” value ([3]; rate 0.2500 kg/ha)?
Answer: Its value is 9.0.

Question: What about the “Herbicidal rating CYPSE” value ([4]; 0.0313 kg/ha) of the same compound?
Answer: The value was 0.0.

Question: What about the “Herbicidal rating CYPSE” value ([4]; 0.0625 kg/ha) of the same compound?
Answer: Its value is 0.0.

Question: What about the “Herbicidal rating CYPSE” value ([4]; 0.1250 kg/ha) of the same compound?
Answer: The value was 0.0.

Question: And the “Herbicidal rating CYPSE” value ([4]; 0.2500 kg/ha)?
Answer: The value was 9.0.

Question: And the GALAP herbicidal rating ([5]; rate 0.0158 kg/ha)?
Answer: The GALAP herbicidal rating was 1.0.

Question: And the GALAP herbicidal rating ([5]; rate 0.0315 kg/ha)?
Answer: Its GALAP herbicidal rating is 4.0.

Question: And the GALAP herbicidal rating ([5]; rate 0.0630 kg/ha)?
Answer: The GALAP herbicidal rating was 4.0.

Question: What about the CASOB herbicidal rating ([6]; rate 0.0158 kg/ha) of the same compound?
Answer: Its CASOB herbicidal rating is 1.0.

Question: What about the CASOB herbicidal rating ([6]; rate 0.0315 kg/ha) of the same compound?
Answer: The CASOB herbicidal rating was 1.0.

Question: What about the CASOB herbicidal rating ([6]; rate 0.0630 kg/ha) of the same compound?
Answer: The CASOB herbicidal rating was 1.0.

Question: And the “Preemergence herbicidal rating CASOB” value ([7]; rate 0.0156 kg/ha)?
Answer: The value was 0.0.

Question: And the “Preemergence herbicidal rating CASOB” value ([7]; rate 0.0313 kg/ha)?
Answer: The value was 0.0.

Question: What about the “Preemergence herbicidal rating CASOB” value ([7]; rate 0.0625 kg/ha) of the same compound?
Answer: Its value is 0.0.

Question: And the “Preemergence herbicidal rating CASOB” value ([7]; rate 0.1250 kg/ha)?
Answer: Its value is 0.0.

Question: And the “Preemergence herbicidal rating CASOB” value ([7]; rate 0.2500 kg/ha)?
Answer: The value was 0.0.

Question: What about the ORYSAT herbicidal rating ([8]; rate 0.0158 kg/ha) of the same compound?
Answer: The ORYSAT herbicidal rating was 2.0.

Question: What about the ORYSAT herbicidal rating ([8]; rate 0.0315 kg/ha) of the same compound?
Answer: The ORYSAT herbicidal rating was 2.5.

Question: What about the ORYSAT herbicidal rating ([8]; rate 0.0630 kg/ha) of the same compound?
Answer: Its ORYSAT herbicidal rating is 4.5.

Question: What about the ECHCG herbicidal rating ([9]; rate 0.0158 kg/ha) of the same compound?
Answer: Its ECHCG herbicidal rating is 2.0.

Question: What about the ECHCG herbicidal rating ([9]; rate 0.0315 kg/ha) of the same compound?
Answer: The ECHCG herbicidal rating was 2.0.

Question: And the ECHCG herbicidal rating ([9]; rate 0.0630 kg/ha)?
Answer: Its ECHCG herbicidal rating is 1.0.

Question: What about the “Herbicidal rating CYPIR” value ([10]; 0.0313 kg/ha) of the same compound?
Answer: The value was 3.0.

Question: And the “Herbicidal rating CYPIR” value ([10]; 0.0625 kg/ha)?
Answer: The value was 4.0.

Question: What about the “Herbicidal rating CYPIR” value ([10]; 0.1250 kg/ha) of the same compound?
Answer: Its value is 6.0.

Question: What about the “Herbicidal rating CYPIR” value ([10]; 0.2500 kg/ha) of the same compound?
Answer: Its value is 9.0.

Question: And the “Herbicidal rating SAGPY” value ([11]; 0.0313 kg/ha)?
Answer: The value was 0.0.

Question: And the “Herbicidal rating SAGPY” value ([11]; 0.0625 kg/ha)?
Answer: Its value is 0.0.

Question: What about the “Herbicidal rating SAGPY” value ([11]; 0.1250 kg/ha) of the same compound?
Answer: The value was 4.0.

Question: What about the “Herbicidal rating SAGPY” value ([11]; 0.2500 kg/ha) of the same compound?
Answer: Its value is 4.0.

Question: And the GLXMAW herbicidal rating ([12]; rate 0.0158 kg/ha)?
Answer: The GLXMAW herbicidal rating was 6.0.

Question: What about the GLXMAW herbicidal rating ([12]; rate 0.0315 kg/ha) of the same compound?
Answer: Its GLXMAW herbicidal rating is 6.5.

Question: And the GLXMAW herbicidal rating ([12]; rate 0.0630 kg/ha)?
Answer: Its GLXMAW herbicidal rating is 7.5.

Question: What about the “Herbicidal rating CYPSE” value ([13]; rate 0.0313 kg/ha) of the same compound?
Answer: The value was 0.0.

Question: And the “Herbicidal rating CYPSE” value ([13]; rate 0.0625 kg/ha)?
Answer: The value was 0.0.

Question: And the “Herbicidal rating CYPSE” value ([13]; rate 0.1250 kg/ha)?
Answer: The value was 0.0.

Question: What about the “Herbicidal rating CYPSE” value ([13]; rate 0.2500 kg/ha) of the same compound?
Answer: Its value is 9.0.

Question: What about the SETVI herbicidal rating ([14]; rate 0.0158 kg/ha) of the same compound?
Answer: Its SETVI herbicidal rating is 2.0.

Question: What about the SETVI herbicidal rating ([14]; rate 0.0315 kg/ha) of the same compound?
Answer: The SETVI herbicidal rating was 4.0.

Question: And the SETVI herbicidal rating ([14]; rate 0.0630 kg/ha)?
Answer: Its SETVI herbicidal rating is 9.0.

Question: And the AMBEL herbicidal rating ([15]; rate 0.0158 kg/ha)?
Answer: Its AMBEL herbicidal rating is 4.0.

Question: What about the AMBEL herbicidal rating ([15]; rate 0.0315 kg/ha) of the same compound?
Answer: Its AMBEL herbicidal rating is 5.0.

Question: And the AMBEL herbicidal rating ([15]; rate 0.0630 kg/ha)?
Answer: The AMBEL herbicidal rating was 7.0.
